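In this assay, cells in 96-well plates receive the compound at five concentrations for 48 hours. Endpoints are linearly interpolated between the surrounding concentrations. TGI marks complete inhibition of growth.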
Legend:
Experiment in all cases: growth of human tumour cells (NCI), 48 h
786-0 renal = system: 786-0 renal
A498 renal = system: A498 renal
A549 NSCLC = system: A549 NSCLC
ACHN renal = system: ACHN renal
BT-549 breast = system: BT-549 breast
CAKI-1 renal = system: CAKI-1 renal
CCRF-CEM leukemia = system: CCRF-CEM leukemia
COLO 205 colon = system: COLO 205 colon
DU-145 prostate = system: DU-145 prostate
EKVX NSCLC = system: EKVX NSCLC
HCC-2998 colon = system: HCC-2998 colon
HCT-116 colon = system: HCT-116 colon
HCT-15 colon = system: HCT-15 colon
HL-60(TB) leukemia = system: HL-60(TB) leukemia
HOP-62 NSCLC = system: HOP-62 NSCLC
HOP-92 NSCLC = system: HOP-92 NSCLC
HS 578T breast = system: HS 578T breast
HT29 colon = system: HT29 colon
IGROV1 ovarian = system: IGROV1 ovarian
K-562 leukemia = system: K-562 leukemia
KM12 colon = system: KM12 colon
LOX IMVI melanoma = system: LOX IMVI melanoma
M14 melanoma = system: M14 melanoma
MALME-3M melanoma = system: MALME-3M melanoma
MCF7 breast = system: MCF7 breast
MDA-MB-231 breast = system: MDA-MB-231 breast
MDA-MB-435 = system: MDA-MB-435
MDA-N = system: MDA-N
MOLT-4 leukemia = system: MOLT-4 leukemia
NCI-H226 lung = system: NCI-H226 lung
NCI-H23 lung = system: NCI-H23 lung
NCI-H460 lung = system: NCI-H460 lung
NCI-H522 lung = system: NCI-H522 lung
NCI/ADR-RES ovarian = system: NCI/ADR-RES ovarian
OVCAR-3 ovarian = system: OVCAR-3 ovarian
OVCAR-4 ovarian = system: OVCAR-4 ovarian
OVCAR-5 ovarian = system: OVCAR-5 ovarian
OVCAR-8 ovarian = system: OVCAR-8 ovarian
PC-3 prostate = system: PC-3 prostate
RPMI-8226 leukemia = system: RPMI-8226 leukemia
SF-295 CNS = system: SF-295 CNS
SF-539 CNS = system: SF-539 CNS
SK-MEL-2 melanoma = system: SK-MEL-2 melanoma
SK-MEL-28 melanoma = system: SK-MEL-28 melanoma
SK-MEL-5 melanoma = system: SK-MEL-5 melanoma
SK-OV-3 ovarian = system: SK-OV-3 ovarian
SN12C renal = system: SN12C renal
SNB-19 CNS = system: SNB-19 CNS
SNB-75 CNS = system: SNB-75 CNS
SR leukemia = system: SR leukemia
SW-620 colon = system: SW-620 colon
T-47D breast = system: T-47D breast
TK-10 renal = system: TK-10 renal
U251 CNS = system: U251 CNS
UACC-257 melanoma = system: UACC-257 melanoma
UACC-62 melanoma = system: UACC-62 melanoma
UO-31 renal = system: UO-31 renal
RXF 393 renal = system: RXF 393 renal
SF-268 CNS = system: SF-268 CNS

O=S1OC[C@H](CCCl)O1 (stereo not given in full)
TGI (786-0 renal): > 100 µM | TGI (A498 renal): > 100 µM | TGI (A549 NSCLC): > 100 µM | TGI (ACHN renal): > 100 µM | TGI (BT-549 breast): > 100 µM | TGI (CAKI-1 renal): > 100 µM | TGI (CCRF-CEM leukemia): > 100 µM | TGI (COLO 205 colon): > 100 µM | TGI (DU-145 prostate): > 100 µM | TGI (EKVX NSCLC): > 100 µM | TGI (HCC-2998 colon): > 100 µM | TGI (HCT-116 colon): > 100 µM | TGI (HCT-15 colon): > 100 µM | TGI (HL-60(TB) leukemia): > 100 µM | TGI (HOP-62 NSCLC): > 100 µM | TGI (HOP-92 NSCLC): > 100 µM | TGI (HS 578T breast): > 100 µM | TGI (HT29 colon): > 100 µM | TGI (IGROV1 ovarian): > 100 µM | TGI (K-562 leukemia): > 100 µM | TGI (KM12 colon): > 100 µM | TGI (LOX IMVI melanoma): > 100 µM | TGI (M14 melanoma): > 100 µM | TGI (MALME-3M melanoma): > 100 µM | TGI (MCF7 breast): > 100 µM | TGI (MDA-MB-231 breast): > 100 µM | TGI (MDA-MB-435): > 100 µM | TGI (MDA-N): > 100 µM | TGI (MOLT-4 leukemia): > 100 µM | TGI (NCI-H226 lung): > 100 µM | TGI (NCI-H23 lung): > 100 µM | TGI (NCI-H460 lung): > 100 µM | TGI (NCI-H522 lung): > 100 µM | TGI (NCI/ADR-RES ovarian): > 100 µM | TGI (OVCAR-3 ovarian): > 100 µM | TGI (OVCAR-4 ovarian): > 100 µM | TGI (OVCAR-5 ovarian): > 100 µM | TGI (OVCAR-8 ovarian): > 100 µM | TGI (PC-3 prostate): > 100 µM | TGI (RPMI-8226 leukemia): > 100 µM | TGI (SF-295 CNS): > 100 µM | TGI (SF-539 CNS): > 100 µM | TGI (SK-MEL-2 melanoma): > 100 µM | TGI (SK-MEL-28 melanoma): > 100 µM | TGI (SK-MEL-5 melanoma): > 100 µM | TGI (SK-OV-3 ovarian): > 100 µM | TGI (SN12C renal): > 100 µM | TGI (SNB-19 CNS): > 100 µM | TGI (SNB-75 CNS): > 100 µM | TGI (SR leukemia): > 100 µM | TGI (SW-620 colon): > 100 µM | TGI (T-47D breast): > 100 µM | TGI (TK-10 renal): > 100 µM | TGI (U251 CNS): > 100 µM | TGI (UACC-257 melanoma): > 100 µM | TGI (UACC-62 melanoma): > 100 µM | TGI (UO-31 renal): > 100 µM

COc1cc(-c2nc3ccc(N4CCN(C)CC4)cc3[nH]2)c(OC)c2[nH]c(CO)nc12
TGI (786-0 renal): > 100 µM | TGI (A498 renal): > 100 µM | TGI (A549 NSCLC): > 100 µM | TGI (ACHN renal): > 100 µM | TGI (BT-549 breast): > 100 µM | TGI (CAKI-1 renal): > 100 µM | TGI (CCRF-CEM leukemia): 44.5 µM | TGI (COLO 205 colon): > 100 µM | TGI (DU-145 prostate): > 100 µM | TGI (EKVX NSCLC): > 100 µM | TGI (HCT-116 colon): > 100 µM | TGI (HCT-15 colon): > 100 µM | TGI (HL-60(TB) leukemia): 37.2 µM | TGI (HOP-62 NSCLC): > 100 µM | TGI (HOP-92 NSCLC): > 100 µM | TGI (HS 578T breast): > 100 µM | TGI (HT29 colon): > 100 µM | TGI (IGROV1 ovarian): > 100 µM | TGI (K-562 leukemia): > 100 µM | TGI (KM12 colon): > 100 µM | TGI (LOX IMVI melanoma): > 100 µM | TGI (M14 melanoma): > 100 µM | TGI (MALME-3M melanoma): > 100 µM | TGI (MCF7 breast): > 100 µM | TGI (MDA-MB-231 breast): > 100 µM | TGI (MDA-MB-435): > 100 µM | TGI (MDA-N): > 100 µM | TGI (MOLT-4 leukemia): > 100 µM | TGI (NCI-H226 lung): > 100 µM | TGI (NCI-H23 lung): > 100 µM | TGI (NCI-H460 lung): > 100 µM | TGI (NCI-H522 lung): > 100 µM | TGI (NCI/ADR-RES ovarian): > 100 µM | TGI (OVCAR-3 ovarian): > 100 µM | TGI (OVCAR-4 ovarian): > 100 µM | TGI (OVCAR-5 ovarian): > 100 µM | TGI (OVCAR-8 ovarian): > 100 µM | TGI (PC-3 prostate): > 100 µM | TGI (RPMI-8226 leukemia): > 100 µM | TGI (RXF 393 renal): > 100 µM | TGI (SF-268 CNS): > 100 µM | TGI (SF-295 CNS): > 100 µM | TGI (SF-539 CNS): > 100 µM | TGI (SK-MEL-2 melanoma): > 100 µM | TGI (SK-MEL-28 melanoma): > 100 µM | TGI (SK-MEL-5 melanoma): > 100 µM | TGI (SK-OV-3 ovarian): > 100 µM | TGI (SN12C renal): > 100 µM | TGI (SNB-19 CNS): > 100 µM | TGI (SNB-75 CNS): > 100 µM | TGI (SR leukemia): > 100 µM | TGI (SW-620 colon): > 100 µM | TGI (T-47D breast): > 100 µM | TGI (TK-10 renal): > 100 µM | TGI (U251 CNS): > 100 µM | TGI (UACC-257 melanoma): > 100 µM | TGI (UACC-62 melanoma): > 100 µM | TGI (UO-31 renal): > 100 µM

Source: PubChem BioAssay (NCI)
